Measurements published in patent US6809096B1, “Phenanthroline-7-one derivatives and their therapeutic uses” (Laboratoire L. Lafon, priority 1999, dated 2004).

How the values were obtained:
[1] = system: leukaemia cell model; settings: cytotoxicity; cited from earlier work
[2] = system: 12 human cancer cell lines (U-373MG, U-87MG, SW1088, A549, A-427, HCT-15, LoVo, T-47D, MCF7, J82, T24, PC-3); test: Cytotoxic activity on tumour cell lines in culture (MTT test); type: cell-based; settings: Homo sapiens, mean IC50 calculated from the individual cytotoxic activities on each of the 12 tumour lines, 72 hours incubation
Description: 1—Cytotoxic Activity on Tumour Cell Lines in Culture (MTT Test)
The influence of the compounds of formula (I) and of (Ia) on tumour cells was evaluated using the MTT calorimetric test (T. Mosman, J. Immunol. Methods, 1983; 65: 55-63, J. Carmichael et al., Cancer Res. 1987; 47: 936-942).
The principle of the MTT test is based on the mitochondrial reduction by metabolically active alive cells of the yellow-coloured product MTT (3-(4,5-dimethylthiazol-2-yl)-2,5-diphenyltetrazolium bromide) to a blue-coloured product, formazan. The amount of formazan thus obtained is directly proportional to the amount of live cells present in the culture well or wells. This amount of formazan is measured by spectrophotometry.
The cell lines are maintained in monolayer culture at 37° C. in stoppered culture dishes containing 25 MM HEPES MEM (Minimum Essential Medium) base medium. This medium is well suited to the growth of a range of varied diploid or primary mammalian cells. This medium is subsequently supplemented: […]
with an amount of 5% of FCS (Foetal Calf Serum) decomplemented at 56° C. for 1 hour, with 0.6 mg/ml of L-glutamine, with 200 IU/ml of penicillin, with 200 μg/ml of streptomycin, with 0.1 mg/ml of gentamicin.
The 12 human cancer cell lines which were used were obtained from the American Type Culture Collection (ATCC, Rockville, Md., USA). These 12 cell lines are:
U-373MG (ATCC code: HTB-17) and U-87MG (ATCC code: HTB-14), which are two glioblastomas, SW1088 (ATCC code: HTB-12) which is an astrocytoma, A549 (ATCC code: CCL-185) and A-427 (ATCC code: HTB-53), which are two non-small-cell lung cancers, HCT-15 (ATCC code: CCL-225) and LoVo (ATCC code: CCL-229), which are two colorectal cancers, T-47D (ATCC code: HTB-133) and MCF7 (ATCC code: HTB-22), which are two breast cancers, J82 (ATCC code: HTB-1) and T24 (ATCC code: […]), which are two bladder cancers, PC-3 (ATCC code: CRL-1435), which is a prostate cancer.
Experimentally: 100 μl of a cell suspension comprising 20 000 to 50 000 (depending on the cell type used) cells/ml of culture medium are inoculated in flat-bottomed 96-well multi-well plates and are incubated at 37° C. under an atmosphere comprising 5% of CO2 and 70% humidity. After incubating for 24 hours, the culture medium is replaced with 100 μl of fresh medium comprising either the various test compounds at concentrations varying from 10^−5 to 10^−10 M of the solvent used to dissolve the -test products (control condition). After incubating for 72 hours under the above conditions, the culture medium is replaced with 100 μl of a yellowish solution of MTT dissolved, in a proportion of 1 mg/ml, in RPMI 1640. The microplates are reincubated for 3 hours at 37° C. and then centrifuged for 10 minutes at 400 g. The yellowish MTT solution is removed and the blue formazan crystals formed at the cellular level are dissolved in 100 μl of DMSO. The microplates are subsequently agitated for 5 minutes. The intensity of the resulting blue coloration, and thus of the conversion of the yellow MTT product into blue formazan by the cells which are still alive at the end of the experiment, is quantified by spectrophotometry using a device of DYNATECH IMOASSAY SYSTEM type at wavelengths of 570 nm and 630 nm corresponding respectively to the maximum absorption wavelengths of formazan and to the background noise. Software built into the spectrophotometer calculates the mean optical density values and the standard deviation (Std. Dev.) and standard error of the mean (SEM) values.
The inhibitory activity on the cell growth of the compounds of formula (I) and (Ia) on the various tumour cell lines was measured in comparison with that of the natural product.

[3] = Determination of the maximum tolerated dose (MTD); settings: mouse, in vivo, ip; B6D2F1/Jico mice, single intraperitoneal administration, survival over 14 days, doses 2.5 to 160 mg/kg; read-out: DMT (mg/kg) (Maximum Tolerated Doses)
Description: 2—Determination of the Maximum Tolerated Dose (MTD)
The evaluation of the maximum tolerated dose was carried out on B6D2F1/Jico mice aged from 4 to 6 weeks. The compounds were administered intraperitoneally at increasing doses ranging from 2.5 to 160 mg/kg. The value of the MTD (expressed in mg/kg) is determined from the observation of the survival rates of the animals over a period of 14 days after a single administration of the product under consideration. The change in the weight of the animals is also monitored over this period. When that the value of the MTD is greater than 160 mg/kg, the value of the MTD is categorized as 160 mg/kg by default.

melting point [°C] | Molecule | ED50 [1] [µg/mL] | IC50 [2] [µM] | MTD at 14 days [3] [mg/kg]
 | 2-bromoleptoclinidone | 0.4 |  | 
 | COc1ccnc2c1C(=O)c1nccc3ccnc-2c13 [CRL 8363, 8-Methoxy-7H-pyrido[4,3,2-de][1,10]phenanthroline-7-one] |  | 0.5 | 10
 | COc1ccnc2c1-c1nccc3ccnc(c13)C2=O [CRL 8364, 11-methoxy-7H-pyrido[4,3,2-de][1,7]phenanthroline-7-one] |  | 0.27 | 5
 | CN(C)c1ccnc2c1-c1nccc3ccnc(c13)C2=O [CRL 8367, 11-(Dimethylamino)-7H-pyrido[4,3,2-de][1,7]phenanthroline-7-one] |  | 1.65 | 10
 | O=C1c2nccc(O)c2-c2nccc3ccnc1c23 [CRL 8388, 11-Hydroxy-7H-pyrido[4,3,2-de][1,7]phenanthroline-7-one] |  | 6.2 | 10
 | O=C1c2c(Cl)ccnc2-c2nccc3ccnc1c23 [CRL 8396, 8-Chloro-7H-pyrido[4,3,2-de][1,10]phenanthroline-7-one] |  | 0.6 | 20
 | COc1cnc2c3c(nccc13)-c1ncccc1C2=O [CRL 8400, 4-Methoxy-7H-pyrido[4,3,2-de][1,10]phenanthroline-7-one] |  | 0.38 | > 160
 | COc1cnc2c3c(nccc13)-c1cccnc1C2=O [CRL 8401, 4-Methoxy-7H-pyrido[4,3,2-de][1,7]phenanthroline-7-one] |  | 0.053 | > 160
 | COc1ccnc2c1-c1nccc3c(OC)cnc(c13)C2=O [CRL 8440, 4,11-Dimethoxy-7H-pyrido[4,3,2-de][1,7]phenanthroline-7-one] |  | 0.01 | 20
 | COc1cnc2c3c(nccc13)-c1c(N(C)C)ccnc1C2=O [CRL 8441, 4-Methoxy-11-dimethylamino-7H-pyrido[4,3,2-de][1,7]phenanthroline-7-one] |  | 5 | > 160
> 260 | COc1ccc2c(n1)C(=O)c1ncc(OC)c3ccnc-2c13 [CRL 8479, 4,9-Dimethoxy-7H-pyrido[4,3,2-de][1,7]phenanthroline-7-one] |  |  | 
> 260 | O=C1c2ncccc2-c2nccc3c(Cl)cnc1c23 [CRL 8480, 4-Chloro-7H-pyrido[4,3,2-de][1,7]phenanthroline-7-one] |  |  | 
> 260 | CN(C)c1cnc2c3c(nccc13)-c1cccnc1C2=O [CRL 8481, 4-Dimethylamino-7H-pyrido[4,3,2-de][1,7]phenanthroline-7-one] |  |  | 
246 | CCOC(=O)c1cnc2c(c1)-c1nccc3ccnc(c13)C2=O [CRL 8482, 10-Ethoxycarbonyl-7H-pyrido[4,3,2-de][1,7]phenanthroline-7-one] |  |  | 
> 260 | O=C1c2nc(O)ccc2-c2nccc3ccnc1c23 [CRL 8483, 9-Hydroxy-7H-pyrido[4,3,2-de][1,7]phenanthroline-7-one] |  |  | 
> 260 | COc1ccc2c(n1)C(=O)c1nccc3ccnc-2c13 [CRL 8484, 9-Methoxy-7H-pyrido[4,3,2-de][1,7]phenanthroline-7-one] |  |  | 
> 260 | COc1cc(OC)c2c(n1)C(=O)c1nccc3ccnc-2c13 [CRL 8485, 9,11-Dimethoxy-7H-pyrido[4,3,2-de][1,7]phenanthroline-7-one] |  |  | 
246 | CN(C)c1cc(Cl)nc2c1-c1nccc3ccnc(c13)C2=O [CRL 8486, 9-Chloro-11-dimethylamino-7H-pyrido[4,3,2-de][1,7]phenanthroline-7-one] |  |  | 
> 260 | I.I.O=C1c2ncccc2-c2nccc3c(O)cnc1c23 [CRL 8487, 4-Hydroxy-7H-pyrido[4,3,2-de][1,7]phenanthroline-7-one dihydroiodide] |  |  | 
